Entries after “also recorded” stand apart in the source; their conditions may differ. Read-outs that look alike come from different tables or passages of the source. No end group written: not given here.
Key:
[1] = test system: LPS-binding protein (LBP); experiment: Inhibition of LPS binding to LPS-binding protein (ELISA)
Procedure: Analysis of the PSP sequence indicated three possible regions of biological activity. Initially, three peptides corresponding to the PSP sequence in these regions were designed and used in these studies. The initial step in the inflammatory cascade is the binding of LPS to LPS-binding protein. This binding was inhibited by preincubation of LPS with each of the three peptides. […] The binding of LPS to LPB was analyzed to ELISA. 0% inhibition (100% binding) was determined in the absence of inhibitors while 100% inhibition was determined in the presence of the inhibitor polymyxin B. The inhibition of each peptide is determined relative to the effect of polymyxin B.

[2] = test system: RAW 264.7 macrophage cells; experiment: LPS-induced TNFα secretion (ELISA); format: cell-based, mouse; settings: P. aeruginosa LPS
Procedure: (§1) FIGS. 15A and 15B. FIG. 15A. Inhibition of endotoxin-stimulated TNFα secretion. RAW 264.7 macrophage cells were stimulated with 100 ng/ml LPS in the presence or absence of the PSP-derived peptides GK7, KL11 or GL13 (200 μg/ml). Polymyxin B (PMX) was used as a positive control. Further controls consisted of peptides alone without LPS stimulation. TNFα secretion was analyzed by ELISA of the RAW culture medium. The data are from triplicate RAW culture dishes for each condition. *) different from LPS alone P<0.03, **) P<0.0002. FIG. 15B. Dose response curve for the inhibition of LPS-induced TNFα secretion by GL-13.
In the present experiments, the redesigned PSP peptides (GL13, KL11) were tested for their effect on TNFα secretion and compared to GK7.

RAW 264.7 cells = experiment: Assay for inflammation: TNFα secretion with peptides alone (ELISA); format: cell-based, mouse
Procedure: as §1
To determine if the PSP peptides cause an inflammatory response in RAW 264.7 cells, the cells were incubated with each peptide for 24 h and TNFα secretion was quantitated by ELISA.
The vaccine adjuvant monophosphoryl lipid A (MPLA) a low-toxicity derivative of LPS was used to stimulate RAW cells in the presence or absence of PSP peptides (200 μg/ml) or the anti-inflammatory peptide polymyxin B (PMX). Control samples were incubated with the peptides alone.

sheep red blood cells = experiment: Hemagglutination assay; format: cell-based; settings: PBS, absence of serum, 2 h
Procedure: FIG. 22: Hemagglutination of sheep red blood cells. RBCs were washed in PBS and incubated for 2 h in microtiter plates in PBS±5% fetal calf serum. Peptide concentrations were 83 μg/ml. The microtiter plate was imaged. Agglutinated red blood cells form a wide mat of cells, while non-agglutinated cells form a button shaped pellet.
Briefly, unmodified sheep erythrocytes (Cappel, M P Biomedicals, Irvine, Calif.) were washed in PBS and suspended at 1% in PBS. Diluted erythrocytes and 20 μg/ml of each peptide in PBS were mixed in polypropylene microtiter plates (120 μl per well) and incubated for 2 h at 35° C. The plates were imaged on a Kodak Image station.

P. aeruginosa = experiment: Antibacterial activity in vivo, Romaine lettuce infection model; design: species or system Pseudomonas aeruginosa; settings: 200 μg/ml peptide injected with bacteria, scored after 2-3 days
Procedure: FIG. 4: Antibacterial activity in vivo. Romaine lettuce leaves were injected with P. aeruginosa (10^8 cells/nil) in the presence or absence of 200 μg/ml of antibacterial peptides. After 2-3 days incubation the injection sites were scored for infection on a scale of 0-100% relative to the no-bacteria (0% infection) and bacteria-only controls (PAO1) (100%). Data are from six independent experiments and are shown as mean±SEM, N=4−12. *) P<0.04, **) P<0.003.
Romaine lettuce heads were purchased from local grocery stores. Outer leaves were removed and undamaged leaves were selected. The leaves were rinsed in 0.1% bleach and incubated in plastic containers on filter paper moistened with 10 mM MgSO4. Overnight cultures of P. aeruginosa were diluted to 10^8 CFU/ml in 10 mM MgSO4 and supplemented with 200 μg/ml of each peptide. Ten μl (10^6 CFU, 2 μg peptide) were injected into the midrib of each leaf using a micro pipetter. Blank controls were incubated with buffer only, and bacterial controls were incubated without peptide. The plastic trays were covered and incubated at 35° C. Leaves were inspected daily for browning around the injection site or along the midrib. Generally rotting or moldy leaves were discarded. Infection was scored on a scale from 0% to 100% relative to blank controls and bacterial controls, respectively.

P. aeruginosa PAO1 = experiment: Biofilm formation / bacterial adhesion assay, PVC microtiter plates, crystal violet; format: cell-based, Pseudomonas aeruginosa; settings: 50 μg/ml, 6 h
Procedure: FIGS. 7A and 7B: PSP-peptides inhibit biofilm formation. P. aeruginosa PAO1 (overnight cultures, diluted 1:100 were incubated with 50 μg/ml of each peptide (LL37, GK7, GL13, KL11) or lysozyme for 6 h under aerobic (FIG. 7A) or reduced oxygen (anaerobic) (FIG. 7B) conditions. The OD 570 (growth) was determined and the attached cells were then quantitated by staining with crystal violet (biofilm). Growth and biofilm values were normalized against the mean of samples without peptides (HOAc) and expressed as mean±SEM. The data in panel A are from three independent experiments, N=22−24. The data in panel B are from two independent experiments, N=16. Lysozyme (Lyz) data are from a single experiment, N=8. *) different from Growth, P<0.002
(§2) Overnight cultures of P. aeruginosa PAO1 were diluted 1:100 in MHB and 100 μl/well were incubated with 5 μl of LL-37, GK-7, GL-13, KL-11 or lysozyme (1 mg/ml) in PVC microtiter plates. The plates were incubated for 6 h at 32° C. under aerobic or reduced oxygen conditions. Bacterial growth was quantitated spectrophotometrically at 570 nm. Twenty-five μl of 1% crystal violet in dH2O was added to each well and incubated 20 min at room temperature. The wells were emptied and washed three times in dH2O and then incubated for 30 min with 200 μl of 95% ethanol. The OD at 570 nm was determined as a measure of biofilm formation. Growth and biofilm values were normalized against the mean of samples incubated with 0.01% acetic acid without peptides.
as §2, with “μl of the bacterial suspension was mixed” for “μl/well were incubated”, “50 μg/ml” for “5 μl”, “lysozyme” for “lysozyme (1 mg/ml)”

[3] = test system: P. aeruginosa with RAW 264.7 macrophage cells; experiment: Gentamicin protection assay (phagocytosis / clearance by macrophages); format: cell-based, mouse; settings: 100 μg/ml peptide
Procedure: FIG. 13. Phagocytosis of P. aeruginosa: Bacteria (5×10^8 CFU/ml) were incubated with buffer (Blk), GK-7 or GL-13 (100 μg/ml) for 1 h and added to RAW cells for 2 h. The RAW cells were washed and incubated with […] for 90 min. The cells were lysed in 1% Tween-20 and the diluted contents plated on agar. CFU were enumerated and expressed relative to the mean of the blank in each of three experiments (N=9) *) P=0.025.
Overnight cultures of P. aeruginosa were diluted 1:5 in PBS and incubated for 1 h at room temperature with PSP peptides (100 μg/ml) or with an equivalent amount of 0.01% acetic acid. Aliquots (500 μl) of these samples were added to RAW 264.7 macrophage cells cultured in 24-well plates and incubated for 2 h at 37° C., 5% CO2. The cells were washed in DMEM and then incubated with DMEM containing 200 μg/ml Gentamicin for 90 min at 37° C., 5% CO2. The cells were again washed with DMEM and the incubated with 200 μl/well of PBS containing 1% Tween 20 for 5 min at room temperature. The cell extracts were diluted in LB and plated on LB agar plates. CFU were enumerated after overnight incubation at 37° C.

[4] = test system: Aggregatibacter (Actinobacillus) actinomycetemcomitans JP2; format: cell-based; settings: 4 h, reduced oxygen
Procedure: The PSP peptides GL13, GK7 and KL11, lysozyme, LL37 or no peptide (BLK) were incubated with P. aeruginosa (FIG. 3A) or A. actinomycetemcomitans (FIG. 3B). P. aeruginosa PAO1 (10^5 cells/ml) were incubated for 2 h at 35° C. with 10 μg/ml (open bars) or 100 μg/ml (shaded bars) of each peptide. A. actinomycetemcomitans JP2 (10^5 cells/nil) were incubated for 4 h at 37° C. under reduced oxygen conditions. Bacterial cultures were diluted and plated on LB agar (Pseudomonas) or BHI agar plates (A.a., low oxygen incubation) and surviving CFUs enumerated. The data are shown as mean±SEM, P. aeruginosa: N=8−22 at 100 μg/ml, N=2−10 at 10 μg/ml. A. actinomycetemcomitans: N=3. *) P<0.0001, **) P<0.004, ***) P<0.02
Overnight cultures of bacteria were pelleted and resuspended in 10 mM sodium phosphate, pH 7.4 (10^5 CFU/ml). Diluted bacteria (100 μl) were incubated with 10 or 100 μg/ml of each peptide in 10 mM sodium phosphate, pH 7.4. P aeruginosa PAO1 were incubated for 2 h at 35° C. while A. actinomycetemcomitans JP2 were incubated for 4 h at 37° C. under reduced oxygen conditions. […]
As a second antibacterial assay, bactericidal activity was determined by incubating the peptides (10 or 100 μg/ml) with P. aeruginosa, A. actinomycetemcomitans or S. gordonii in 10 mM phosphate buffer. […]

[5] = test system: P. aeruginosa PAO1 on MDCK cell monolayers; experiment: Epithelial invasion assay, MDCK monolayer penetration; format: cell-based, Pseudomonas aeruginosa; settings: 24 h
Procedure: FIG. 10. MDCK monolayer penetration: MDCK cells were cultured on filter supports and infected on the apical side with 10^6 CFU/ml of P. aeruginosa PAO1 (PAO1) or bacteria mixed with PSP peptides, as indicated. Control MDCK cells were incubated with buffer alone (HOAc). After 24 h incubation at 37° C., the OD 600 nm was determined for the media in the basolateral compartment to detect bacterial penetration of the MDCK cell monolayer.
To determine if PSP peptides prevent the penetration of epithelial cell monolayers, the epithelial cell line MDCK was cultured on permeable membrane filters. P. aeruginosa were added to the apical medium of confluent MDCK cell monolayers and bacterial penetration was determined as the number of bacteria recovered from the basolateral medium after a 24 h incubation.

Substance | effect on LPS binding to LBP [1] | inhibition of LPS-induced TNFα secretion [2] | TNFα secretion with peptide alone (RAW 264.7 cells; no LPS stimulation) | hemagglutination (words) (sheep red blood cells) | infection of lettuce leaves (P. aeruginosa) | bacterial growth in biofilm/adhesion assay (P. aeruginosa PAO1; aerobic) | biofilm formation / adhesion (P. aeruginosa PAO1; aerobic) | bacterial clearance / phagocytosis [3] | TNFα secretion with peptide alone (RAW 264.7 cells) | survival of A. actinomycetemcomitans [4] | inhibition of biofilm formation (adhesion) (P. aeruginosa PAO1; aerobic) | biofilm formation (P. aeruginosa PAO1; reduced oxygen conditions) | penetration / invasion of MDCK cell monolayers by P. aeruginosa [5]
polymyxin B [reference compound] | Strong inhibition | about 50% | exhibited toxicity to RAW cells, as evidenced by increased TNFα release | did not cause hemagglutination | – | – | – | – | – | – | – | – | –
GQIINLK [GK7, GQIINLK] | – | – | – | did not cause hemagglutination | neither GK-7 nor LL37 showed a significant effect on infection | affected neither growth nor adhesion | affected neither growth nor adhesion | had no effect on clearance | small increase in TNFα secretion | – | – | – | –
KLLNNVISKLL [KL11, KLLNNVISKLL] | – | – | – | did not cause hemagglutination | significantly reduced the infection; also recorded: significantly inhibit P. aeruginosa infection | only a small (non-significant) reduction of bacterial growth | – | – | – | 40% | 40% | reduced biofilm formation under low oxygen conditions | could inhibit the penetration
